{
  "source": "ChEMBL document CHEMBL1134146",
  "about": "“Development of specific CXCR4 inhibitors possessing high selectivity indexes as well as complete stability in serum based on an anti-HIV peptide T140” (Bioorg Med Chem Lett, 2001)",
  "key": {"[1]": {"assay": "Selectivity index determined for CC50 (test I) to EC50 x 10e3", "type": "functional"}, "[2]": {"assay": "Selectivity index determined for CC50 (test II) to EC50 x 10e3", "type": "functional"}, "[3]": {"system": "PBMC (Homo sapiens)", "assay": "Cytotoxic concentration of compound determined by the […] exclusion staining method in PBMC by test II"}, "[4]": {"system": "MT4", "assay": "Cytotoxic concentration of compound required to reduce the viability of mock infected MT-4 cells on the MTT assay in test I", "type": "functional", "settings": "Homo sapiens"}},
  "data": [
    {"smiles": "NCCCC[C@H]1NC(=O)[C@H](CCCN=C(N)N)NC(=O)[C@@H](Cc2ccc(O)cc2)NC(=O)[C@H](NC(=O)[C@@H](NC(=O)[C@H](CCCN=C(N)N)NC(=O)[C@@H](N)CCCN=C(N)N)c2ccc3ccccc3c2)CSSC[C@H](C(=O)N[C@@H](CCCN=C(N)N)C(=O)O)NC(=O)[C@H](CCCNC(N)=O)NC(=O)[C@H](CCCN=C(N)N)NC(=O)[C@H](Cc2ccc(O)cc2)NC(=O)[C@H]2CCCN2C(=O)[C@H](CCCNC(N)=O)NC1=O", "values": [
      {"measurement": "SI", "setting": "[1]", "value": "> 20"},
      {"measurement": "SI", "setting": "[2]", "value": 28}
    ]},
    {"smiles": "NCCCC[C@@H]1NC(=O)[C@@H](CCCCN)NC(=O)[C@H](CCCNC(N)=O)NC(=O)[C@@H](Cc2ccc(O)cc2)NC(=O)[C@H](NC(=O)[C@@H](NC(=O)[C@H](CCCN=C(N)N)NC(=O)[C@@H](N)CCCN=C(N)N)c2ccc3ccccc3c2)CSSC[C@H](C(=O)N[C@@H](CCCN=C(N)N)C(N)=O)NC(=O)[C@H](CCCNC(N)=O)NC(=O)[C@H](CCCNC(N)=O)NC(=O)[C@H](Cc2ccc(O)cc2)NC(=O)[C@H]2CCCN2C1=O", "values": [
      {"measurement": "SI", "setting": "[1]", "value": "> 15"},
      {"measurement": "SI", "setting": "[2]", "value": "> 59"}
    ]},
    {"smiles": "NCCCC[C@@H]1NC(=O)[C@@H](CCCCN)NC(=O)[C@H](CCCN=C(N)N)NC(=O)[C@@H](Cc2ccc(O)cc2)NC(=O)[C@H](NC(=O)[C@@H](NC(=O)[C@H](CCCN=C(N)N)NC(=O)[C@@H](N)CCCNC(N)=O)c2ccc3ccccc3c2)CSSC[C@H](C(=O)N[C@@H](CCCN=C(N)N)C(=O)O)NC(=O)[C@H](CCCNC(N)=O)NC(=O)[C@H](CCCNC(N)=O)NC(=O)[C@H](Cc2ccc(O)cc2)NC(=O)[C@H]2CCCN2C1=O", "values": [
      {"measurement": "SI", "setting": "[1]", "value": "> 1.5"},
      {"measurement": "SI", "setting": "[2]", "value": "> 12"}
    ]},
    {"smiles": "NCCCC[C@H]1NC(=O)[C@H](CCCNC(N)=O)NC(=O)[C@@H](Cc2ccc(O)cc2)NC(=O)[C@H](NC(=O)[C@@H](NC(=O)[C@H](CCCN=C(N)N)NC(=O)[C@@H](N)CCCN=C(N)N)c2ccc3ccccc3c2)CSSC[C@H](C(=O)N[C@@H](CCCN=C(N)N)C(N)=O)NC(=O)[C@H](CCCNC(N)=O)NC(=O)[C@H](CCCN=C(N)N)NC(=O)[C@H](Cc2ccc(O)cc2)NC(=O)[C@H]2CCCN2C(=O)[C@H](CCCNC(N)=O)NC1=O", "values": [
      {"measurement": "SI", "setting": "[1]", "value": "> 250"},
      {"measurement": "SI", "setting": "[2]", "value": "> 2000"}
    ]},
    {"smiles": "NCCCC[C@@H]1NC(=O)[C@H](CCCNC(N)=O)NC(=O)[C@H](Cc2ccc(O)cc2)NC(=O)[C@@H](NC(=O)[C@@H](NC(=O)[C@H](CCCN=C(N)N)NC(=O)[C@@H](N)CCCNC(N)=O)c2ccc3ccccc3c2)CSSC[C@@H](C(=O)N[C@@H](CCCN=C(N)N)C(=O)O)NC(=O)[C@H](CCCNC(N)=O)NC(=O)[C@H](CCCN=C(N)N)NC(=O)[C@H](Cc2ccc(O)cc2)NC(=O)[C@@H]2CCCN2C(=O)[C@@H](CCCCN)NC1=O", "values": [
      {"measurement": "CC50", "setting": "[3]", "value": "> 800", "unit": "µM"},
      {"measurement": "CC50", "setting": "[4]", "value": "> 100", "unit": "µM"}
    ]},
    {"smiles": "NCCCC[C@@H]1NC(=O)[C@H](CCCN=C(N)N)NC(=O)[C@H](Cc2ccc(O)cc2)NC(=O)[C@@H](NC(=O)[C@@H](NC(=O)[C@H](CCCN=C(N)N)NC(=O)[C@@H](N)CCCNC(N)=O)c2ccc3ccccc3c2)CSSC[C@@H](C(=O)N[C@@H](CCCN=C(N)N)C(N)=O)NC(=O)[C@H](CCCNC(N)=O)NC(=O)[C@H](CCCNC(N)=O)NC(=O)[C@H](Cc2ccc(O)cc2)NC(=O)[C@@H]2CCCN2C(=O)[C@@H](CCCCN)NC1=O", "values": [
      {"measurement": "CC50", "setting": "[3]", "value": 470, "unit": "µM"},
      {"measurement": "CC50", "setting": "[4]", "value": "> 100", "unit": "µM"}
    ]},
    {"smiles": "NCCCC[C@@H]1NC(=O)[C@H](CCCN=C(N)N)NC(=O)[C@H](Cc2ccc(O)cc2)NC(=O)[C@@H](NC(=O)[C@@H](NC(=O)[C@H](CCCN=C(N)N)NC(=O)[C@@H](N)CCCNC(N)=O)c2ccc3ccccc3c2)CSSC[C@@H](C(=O)N[C@@H](CCCN=C(N)N)C(N)=O)NC(=O)[C@H](CCCNC(N)=O)NC(=O)[C@H](CCCN=C(N)N)NC(=O)[C@H](Cc2ccc(O)cc2)NC(=O)[C@@H]2CCCN2C(=O)[C@@H](CCCNC(N)=O)NC1=O", "values": [
      {"measurement": "CC50", "setting": "[3]", "value": 500, "unit": "µM"},
      {"measurement": "CC50", "setting": "[4]", "value": "> 100", "unit": "µM"}
    ]},
    {"smiles": "NCCCC[C@@H]1NC(=O)[C@H](CCCN=C(N)N)NC(=O)[C@H](Cc2ccc(O)cc2)NC(=O)[C@@H](NC(=O)[C@@H](NC(=O)[C@H](CCCN=C(N)N)NC(=O)[C@@H](N)CCCNC(N)=O)c2ccc3ccccc3c2)CSSC[C@@H](C(=O)N[C@@H](CCCN=C(N)N)C(=O)O)NC(=O)[C@H](CCCNC(N)=O)NC(=O)[C@H](CCCNC(N)=O)NC(=O)[C@H](Cc2ccc(O)cc2)NC(=O)[C@@H]2CCCN2C(=O)[C@@H](CCCCN)NC1=O", "values": [
      {"measurement": "CC50", "setting": "[3]", "value": "> 800", "unit": "µM"},
      {"measurement": "CC50", "setting": "[4]", "value": "> 100", "unit": "µM"}
    ]}
  ]
}
